In US9346822B2, “Thienopyrimidine compounds and use thereof” (TAKEDA PHARMACEUTICAL COMPANY LIMITED, priority 2003, dated 2016):

Tested on: not given
Assay: not given
Conditions: not given
`CONC(=O)Nc1ccc(-c2sc3c(c2CN[C@@H](C)c2ccccc2)c(=O)n(-c2ccccc2)c(=O)n3Cc2c(F)cccc2F)cc1` [Reference Example 29, N-(4-(5-(((1S)-1-phenylethylamino)methyl)-1-(2,6-difluorobenzyl)-1,2,3,4-tetrahydro-2,4-dioxo-3-phenylthieno[2,3-d]pyrimidin-6-yl)phenyl)-N′-methoxyurea] showed a melting point of 182 to 185 °C. With `CONC(=O)Nc1ccc(-c2sc3c(c2CN(C)[C@H](C)c2ccccc2)c(=O)n(-c2ccccn2)c(=O)n3Cc2c(F)cccc2F)cc1` [Reference Example 38, N-(4-(5-((methyl((1R)-1-phenylethyl)amino)methyl)-1-(2,6-difluorobenzyl)-1,2,3,4-tetrahydro-2,4-dioxo-3-pyridin-2-ylthieno[2,3-d]pyrimidin-6-yl)phenyl)-N′-methoxyurea] the melting point was 168 to 170 °C. Work on `COCC(C)N(C)Cc1c(-c2ccc(NC(=O)NOC)cc2)sc2c1c(=O)n(-c1ccccc1)c(=O)n2Cc1c(F)cccc1F` (centres unmarked) [Reference Example 34, N-(4-(1-(2,6-difluorobenzyl)-5-(((2-methoxy-1-methylethyl)methylamino)methyl)-1,2,3,4-tetrahydro-2,4-dioxo-3-phenylthieno[2,3-d]pyrimidin-6-yl)phenyl)-N′-methoxyurea] yielded a melting point of 154 to 155 °C. Work on `CONC(=O)Nc1ccc(-c2sc3c(c2CN[C@H](C)c2ccccc2)c(=O)n(-c2ccccc2)c(=O)n3Cc2c(F)cccc2F)cc1` (hydrate or solvate) [Reference Example 28, N-(4-(5-(((1R)-1-phenylethylamino)methyl)-1-(2,6-difluorobenzyl)-1,2,3,4-tetrahydro-2,4-dioxo-3-phenylthieno[2,3-d]pyrimidin-6-yl)phenyl)-N′-methoxyurea] yielded a melting point of 180 to 182 °C. Work on `CONC(=O)Nc1ccc(-c2sc3c(c2CN(C)[C@H](C)c2ccccc2)c(=O)n(-c2ccc(F)cn2)c(=O)n3Cc2c(F)cccc2F)cc1` [Reference Example 39, N-(4-(5-((methyl((1R)-1-phenylethyl)amino)methyl)-1-(2,6-difluorobenzyl)-1,2,3,4-tetrahydro-2,4-dioxo-3-(5-fluoropyridin-2-yl)thieno[2,3-d]pyrimidin-6-yl)phenyl)-N′-methoxyurea] yielded a melting point of 128 to 130 °C. With `COCC(c1ccccc1)N(C)Cc1c(-c2ccc(NC(=O)NOC)cc2)sc2c1c(=O)n(-c1ccccc1)c(=O)n2Cc1c(F)cccc1F` (centres unmarked) [Reference Example 32, N-(4-(1-(2,6-difluorobenzyl)-5-((2-methoxy-1-phenylethyl(methyl)amino)methyl)-1,2,3,4-tetrahydro-2,4-dioxo-3-phenylthieno[2,3-d]pyrimidin-6-yl)phenyl)-N′-methoxyurea] the melting point was 169 to 172 °C.

Biological target: human GnRH receptor (Homo sapiens (Human), UniProt P30968)
Sequence (P30968 whole entry): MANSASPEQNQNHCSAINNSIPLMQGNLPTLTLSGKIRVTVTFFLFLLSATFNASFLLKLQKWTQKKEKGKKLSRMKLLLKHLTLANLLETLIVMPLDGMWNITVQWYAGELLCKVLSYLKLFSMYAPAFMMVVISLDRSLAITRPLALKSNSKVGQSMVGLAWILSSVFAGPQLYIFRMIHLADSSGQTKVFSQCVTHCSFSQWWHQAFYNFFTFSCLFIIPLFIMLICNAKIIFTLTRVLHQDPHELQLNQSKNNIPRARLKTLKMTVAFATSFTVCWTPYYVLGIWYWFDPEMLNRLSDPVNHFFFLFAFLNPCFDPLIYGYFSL
Assay: 125I-leuprorelin binding inhibition, CHO cell membrane fraction containing human GnRH receptor
Conditions: human GnRH receptor expressed in CHO cell membrane, 25° C., 60 minutes, from Hill plot
Procedure: To a tube containing 10 μl of a 3×10^−4 M aqueous solution of leuprorelin and 10 μl of 0.01 mg/ml lactoperoxidase was added 10 μl (37 MBq) of a solution of Na^125I. After stirring, 10 μl of 0.001% H2O2 was added, and a reaction was carried out at room temperature for 20 minutes. By adding 700 μl of a 0.05% TFA solution, the reaction was stopped, followed by purification by reversed-phase HPLC. The HPLC conditions used are shown below. ^125I-leuprorelin was eluted at a retention time of 26 to 27 minutes.
Human GnRH receptor-expressing CHO cells (10^9 cells) were suspended in phosphate-buffered saline supplemented with 5 mM EDTA (PBS-EDTA) and centrifuged at 100×g for 5 minutes. […]
The monkey and human membrane fractions prepared in the above (2) and (3) were diluted with the assay buffer to yield a 200 µg/ml dilution, each of which was then dispensed at 188 μl per tube. […] To determine maximum binding quantity, a reaction mixture containing 2 μl of 60% DMSO and 10 μl of 38 nM ^125I-leuprorelin was prepared. […]
Where the membrane fraction of the CHO with monkey and human GnRH receptors expressed was used, the reaction was carried out at 25° C. for 60 minutes. […] After this filtration, the radioactivity of ^125I-leuprorelin remaining on the filter paper was measured with a γ-counter. […]
`CCOCCN(C)Cc1c(-c2ccc(NC(=O)NOC)cc2)sc2c1c(=O)n(-c1ccccn1)c(=O)n2Cc1c(F)cccc1F` [Ex. Compd. No. 41, N-(4-(1-(2,6-difluorobenzyl)-5-(((2-ethoxyethyl)(methyl)amino)methyl)-2,4-dioxo-3-(2-pyridinyl)-1,2,3,4-tetrahydrothieno[2,3-d]pyrimidin-6-yl)phenyl)-N′-methoxyurea] showed an IC50 of 0.0001 µM. With `COCCN(C)Cc1c(-c2ccc(NC(=O)NOC)cc2)sc2c1c(=O)n(-c1ccccn1)c(=O)n2Cc1c(F)cccc1F` [Ex. Compd. No. 40, N-(4-(1-(2,6-difluorobenzyl)-5-(((2-methoxyethyl)(methyl)amino)methyl)-2,4-dioxo-3-(2-pyridinyl)-1,2,3,4-tetrahydrothieno[2,3-d]pyrimidin-6-yl)phenyl)-N′-methoxyurea] the IC50 was 0.0002 µM.
